In experiment [1] the test system is RNA polymerase II phosphorylation at Ser2. The experiment can be described thus: immunoblotting of p-Ser2 RNA polymerase II in Ramos cells. The following applies: 0.1 and 1 µM (R547 1 µM), 4-24 h. The class given is cell-based, human. The protocol: (§1) Cells were seeded at a density of 2 × 10^6 cells, treated as specified and harvested by centrifugation at 3000 rpm for 5 min, followed by freezing in liquid nitrogen. The cell pellets were thawed on ice and quick-frozen and defrozen in liquid nitrogen for three times, then lysed on ice in lysis buffer (20 mM Tris-HCl, 150 mM NaCl, 1% v/v Triton X-100, 0.5 mM EDTA, 10 mM NaF, 2.5 mM Na4P2O7, protease inhibitor (Sigma, #P2714)) for 30 min, accompanied by vortexing. Subsequently, centrifugation 13,300 rpm for 15 min purified cell lysates from cell debris. The supernatant was transferred to a new tube and the protein concentration was determined by Bradford assay. The samples were diluted with sample buffer. SDS-Page and Western Blot were conducted in accordance with standard workflows. […] The antibody baths were stored at 4 °C and re-used.
(§2) The density of the individual protein band was determined using Image Studio^TM Lite Version 5.2. The density of each protein was divided by the average of all bands of this protein. The ratios of the protein of interest were normalized to the ratio of the respective loading control. To determine the fold change, each normalized ratio was divided by the normalized band of the control line (untreated cells). Fold change is 1 for the control line, n ≥ 2. The results are shown as mean ± standard deviation and were visualized with GraphPad Prism 7.
A general note: A western blot detects proteins with antibodies after separation by electrophoresis.

The test system of a further experiment is MOLT4. The conditions noted are these: read-out: IC50 (MOLT4); cytotoxicity, 24 h.
The test system of experiment [2] is CLL17 chronic lymphocytic leukemia cells. The conditions noted are these: read-out: IC50 (CLL17); primary patient cells, 24 h.
Source text: For chronic lymphocytic leukemia, mononuclear cells were isolated from peripheral blood using a Ficoll gradient (GE Healthcare). Primary cells from other lymphoma entities were isolated as previously described [80]. All cells were cryopreserved after isolation and thawed as previously described [81].
The resazurin reduction assay, which is also known as AlamarBlue® assay, was used for the determination of cell viability in all cytotoxicity determinations shown in the present work, as previously described [22]. Briefly, cells were seeded at a specific density depending on the incubation time (24 h: 1 × 10^6 cells/ml) in a 96-well plate and incubated with increasing compound concentrations (0.01–30 µM). After the specified treatment time, resazurin (Sigma, #R7017) was added to a final concentration of 40 µM. […] The viability of control cells was set to 100% and all other values were normalized to the control condition, the dose-response curves were then fitted with Prism v7.01 (GraphPad software, La Jolla, CA, USA).
In a further experiment the test system is HPBALL. The following applies: read-out: IC50 (HPBALL); cytotoxicity, 24 h.
A further experiment relates to Ramos cells. The experiment can be described thus: cell cycle analysis (Nicoletti assay). The class given is cell-based, human. The conditions noted are these: 24 h, sublethal dose, with QVD. How it is done:
DNA content during cell cycle and hypodiploid apoptotic nuclei were measured by the method of Nicoletti et al.. […] Hypodiploid nuclei were measured in logarithmic mode for apoptosis determination. Flow-cytometry analysis was performed on an LSRFortessa^TM (Becton, Dickinson, Heidelberg, Germany) and data analysis was performed using FlowJo_V10 (BD Biosciences).

Another experiment has as its system cyclin B1 expression. The experiment can be described thus: immunoblotting of cyclin B1 in Ramos cells. The class given is cell-based, human. The following applies: 24 h. How it is done:
as §1, §2

Experiment [3] concerns retinoblastoma (RB) protein phosphorylation. The experiment can be described thus: immunopurification of RB from Ramos cells. It counts as cell-based, human. How it is done: For immunopurification (IP) the Dynabeads^TM Protein G Immunoprecipitation kit from Invitrogen (#10007D) was used. For IP, 2 × 10^6 cells were seeded in a 24-well plate and treated with the appropriate compound. After incubation, cells were lysed with NP-40 containing lysis buffer (Hepes-NaOH 50 mM pH 7.5, NaCl 150 mM, NP-40 1% v/v, MgCl2 2.5 mM, 1x Protease inhibitor (cOmplete^TM, EDTA-free Protease Inhibitor Cocktail), 1x Phosphatase Inhibitor (PhosSTOP^TM)) for 30 min. A protein content of 50 µg per IP was used, the protein concentration was measured by Bradford assay (Bio-Rad #5000006) with the photometer. Protein G is conjugated to the magnetic Dynabeads^TM. In the first step, the Dynabeads^TM were incubated for 10 min with the specific RB antibody (Abcam #ab181616; rabbit), which was used in a dilution of 1:80. The antibody bound to the conjugated protein G and a bead-antibody complex was formed. By placing the tube on a magnet, the beads were easily separated from the solution and the supernatant could be removed. The bead-antibody complex was washed once with Ab binding and washing buffer. In the second step, the cell lysate was incubated for 10 min with the bead-antibody complex to allow the RB protein from the lysate to bind to the antibody. The bead complex was washed several times with washing buffer by placing the tube on the magnet and removing the supernatant. […]

Another experiment concerns Ramos. The experiment can be described thus: AlamarBlue viability assay. The conditions noted are these: cytotoxicity, 24 h, read-out: IC50 (Ramos). It counts as cell-based, human. A general note: The colour change of resazurin is a common sign of viable cells or microbes.

Where two headings read alike, the source gives them in different places.

Procedure for HPBALL: (§3) The resazurin reduction assay, which is also known as AlamarBlue® assay, was used for the determination of cell viability in all cytotoxicity determinations shown in the present work, as previously described [22]. Briefly, cells were seeded at a specific density depending on the incubation time (24 h: 1 × 10^6 cells/ml) in a 96-well plate and incubated with increasing compound concentrations (0.01–30 µM). After the specified treatment time, resazurin (Sigma, #R7017) was added to a final concentration of 40 µM. […] The viability of control cells was set to 100% and all other values were normalized to the control condition, the dose-response curves were then fitted with Prism v7.01 (GraphPad software, La Jolla, CA, USA). The reduction of resazurin to resorufin is proportional to aerobic respiration; therefore, it is used as a measure for the cell viability and cytotoxicity of a tested compound.
Procedure for MOLT4: as §3

What is called IC50 is the midpoint of a concentration-inhibition curve. Consider `c1ccc(CNc2cc(-c3c[nH]c4ncccc34)ccn2)cc1` [meriolin 36], for which the “phosphorylation of RNA polymerase II at Ser2” value in experiment [1] is “less pronounced”. Besides, the results for the IC50 (with MOLT4; in experiment [2]; in the experiment with HPBALL) were 3480 nM, 110 nM and 3440 nM, respectively. The “effect on cell cycle phases” value with Ramos cells is “only a slight shift to G2 phase”. Further, in the experiment on cyclin B1 expression, the “expression of cyclin B1” value is “rather increased the expression of cyclin B1”.

For the compound `COc1ccnc2[nH]cc(-c3cc(N)nc(N)c3)c12` [meriolin 16], in experiment [1], the “phosphorylation of RNA polymerase II at Ser2” value is listed as “total loss of the phosphorylation at Ser2 within 4 h”. In addition, the IC50 in the experiment on MOLT4 is 20 nM; in experiment [2] it was 50 nM; in the experiment with HPBALL, 20 nM; in the experiment on Ramos (as given in text) it was 20 to 30 nM; with Ramos (listed as Meriolin 16), 20 nM; in the experiment with Ramos, 30 nM. Further, the “phosphorylation of RB at p-Ser612 and p-Thr821 (immunopurified RB)” value in experiment [3] (1 µM, 4 h) is listed as “less phosphorylated”; in experiment [3] (24 h), “completely abrogated”. The “effect on cell cycle phases” value in the experiment with Ramos cells is listed as “only a slight shift to G2 phase”. Moreover, in the experiment on cyclin B1 expression, the “expression of cyclin B1” value is given as “reduced the expression of cyclin B1”.

Values taken from publication PMC11167047 (Cell Death Discovery, 2024).
